The target of assay [1] is T1, 5-HT3AB receptors (Homo sapiens, UniProt O95264+P46098).
T1 construct: expressed in transfected cells; host or cells: Xenopus laevis oocytes (cRNA from pGEMHE) or HEK293 cells (pcDNA3.1), A:B ratio 1:3
T1 sequence (P46098 24-478): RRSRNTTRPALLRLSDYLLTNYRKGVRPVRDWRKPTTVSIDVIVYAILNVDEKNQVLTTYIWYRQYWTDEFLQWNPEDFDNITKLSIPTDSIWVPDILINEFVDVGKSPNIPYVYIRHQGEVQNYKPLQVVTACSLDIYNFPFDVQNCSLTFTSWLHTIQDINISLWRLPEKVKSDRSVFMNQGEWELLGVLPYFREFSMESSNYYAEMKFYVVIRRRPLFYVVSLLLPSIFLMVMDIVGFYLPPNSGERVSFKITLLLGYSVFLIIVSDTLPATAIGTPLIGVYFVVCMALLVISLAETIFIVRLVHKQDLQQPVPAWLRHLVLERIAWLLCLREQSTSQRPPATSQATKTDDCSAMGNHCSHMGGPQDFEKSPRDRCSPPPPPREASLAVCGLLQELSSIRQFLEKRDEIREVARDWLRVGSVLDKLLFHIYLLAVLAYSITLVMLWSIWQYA
T1 sequence (O95264 22-441): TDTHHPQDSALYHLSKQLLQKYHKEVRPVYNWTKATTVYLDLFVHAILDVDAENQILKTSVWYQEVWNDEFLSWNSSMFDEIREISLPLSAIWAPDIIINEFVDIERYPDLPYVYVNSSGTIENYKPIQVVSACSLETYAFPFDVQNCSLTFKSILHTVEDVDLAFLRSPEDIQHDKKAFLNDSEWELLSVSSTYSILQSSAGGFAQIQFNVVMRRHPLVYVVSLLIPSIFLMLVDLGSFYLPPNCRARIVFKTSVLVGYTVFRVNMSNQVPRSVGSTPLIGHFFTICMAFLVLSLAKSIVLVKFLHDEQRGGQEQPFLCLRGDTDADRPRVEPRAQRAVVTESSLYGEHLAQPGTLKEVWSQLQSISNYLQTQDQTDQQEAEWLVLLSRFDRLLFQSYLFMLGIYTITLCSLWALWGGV
Put plainly: Fluorescent membrane potential dye (FlexStation) in transfected HEK293 cells. It is filed as cell-based. The conditions noted are these: Hill slope, 5-HT3AB receptors in HEK293 cells, mean ± SEM. As for the experimental part: (§1) Human embryonic kidney (HEK) 293 cells were maintained on 90 mm tissue culture plates at 37 °C and 7% CO2 in a humidified atmosphere. They were cultured in DMEM:F12 with GlutaMAX I media (Dulbecco’s modified Eagle’s Medium/Nutrient Mix F12 (1:1), Invitrogen, Paisley, U.K.) containing 10% fetal calf serum. Cells in 90 mm dishes were transfected using polyethylenimine (PEI). Then 30 μL of PEI (1 mg/mL), 4 μL of cDNA (1 mg/mL) and 1 mL of DMEM were incubated for 10 min at room temperature, added dropwise to a 80–90% confluent plate, and incubated for 2–3 days. For Flexstation studies, cells were transferred to 96-well plates and allowed to adhere overnight before use.
(§2) cDNA was cloned into pGEMHE for oocyte expression, and pcDNA3.1 (Invitrogen, Paisley, U.K.) for expression in HEK 293 cells. Mutagenesis (Figure 1) was performed using QuikChange (Agilent Technologies Inc., Santa Clara, CA). cRNA was in vitro transcribed from linearized pGEMHE cDNA template using the mMessage mMachine T7 Transcription kit (Ambion, Austin, TX). 5-HT3A was linearized with SphI and 5-HT3B cDNA with NheI. Stage V and VI oocytes were injected with 50 nL of ∼400 ng μL^–1 cRNA, and currents were recorded 1–4 days postinjection. […] This was as previously described.[22] […] The cells were incubated at 37 °C for 45 min, and then fluorescence was measured in a FlexStation (Molecular Devices) at 2 s intervals for 200 s. […] Analysis and curve fitting was performed using Prism (GraphPad Software, San Diego, CA, www.graphpad.com).

The target in assay [2] is T2, 5-HT3A receptors (Homo sapiens, UniProt P46098).
T2 construct: expressed in transfected cells; host or cells: Xenopus laevis oocytes (cRNA from pGEMHE) or HEK293 cells (pcDNA3.1)
T2 sequence (P46098 24-478): T1 sequence (P46098 24-478)
The description is as above. It counts as cell-based. The conditions noted are these: Hill slope, 5-HT3A receptors in HEK293 cells, mean ± SEM. How it is done: as §1, §2

In assay [3] the target is T3, 5-HT3ABr1 receptors (Homo sapiens, UniProt O95264+P46098).
T3 sequence (P46098 24-478): T1 sequence (P46098 24-478)
T3 sequence (O95264 1-430 isoform O95264-2): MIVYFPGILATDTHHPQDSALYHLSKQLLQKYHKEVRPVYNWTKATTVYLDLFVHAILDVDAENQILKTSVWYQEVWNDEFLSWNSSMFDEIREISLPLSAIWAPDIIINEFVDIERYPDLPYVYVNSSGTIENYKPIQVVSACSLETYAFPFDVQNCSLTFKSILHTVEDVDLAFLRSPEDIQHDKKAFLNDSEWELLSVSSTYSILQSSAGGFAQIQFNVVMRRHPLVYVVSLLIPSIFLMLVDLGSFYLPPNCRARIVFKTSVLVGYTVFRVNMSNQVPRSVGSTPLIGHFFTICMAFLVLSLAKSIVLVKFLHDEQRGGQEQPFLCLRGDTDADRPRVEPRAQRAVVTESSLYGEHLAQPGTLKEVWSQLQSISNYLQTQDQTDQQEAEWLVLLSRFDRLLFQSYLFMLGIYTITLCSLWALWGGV
The description is as above. It counts as cell-based. The conditions noted are these: Hill slope, 5-HT3ABr1 receptors in HEK293 cells, mean ± SEM. As for the experimental part:
as §1, §2

Assay [4] addresses T4, 5-HT3ABr2 receptors (Homo sapiens, UniProt P46098).
T4 construct: expressed in transfected cells; host or cells: Xenopus laevis oocytes (cRNA from pGEMHE) or HEK293 cells (pcDNA3.1), A:Br2 ratio 1:3 unless otherwise stated
T4 sequence (P46098 24-478): T1 sequence (P46098 24-478)
The description is as above. It is filed as cell-based. The conditions noted are these: Hill slope, 5-HT3ABr2 receptors in HEK293 cells, mean ± SEM. As for the experimental part:
as §1, §2

Assay [5] addresses T1, 5-HT3AB receptors. Briefly: 5-HT-induced macroscopic currents, two-electrode voltage-clamp in Xenopus oocytes. It is filed as cell-based. As to conditions: Hill slope, 5-HT3AB receptors in oocytes. How it is done:
(§3) Xenopus laevis oocyte-positive females were purchased from NASCO (Fort Atkinson, WI) and maintained according to standard methods. Harvested stage V–VI Xenopus oocytes were washed in four changes of Ca-free ND96 (96 mM NaCl, 2 mM KCl, 1 mM MgCl2, 5 mM HEPES, pH 7.5), defolliculated in 1.5 mg mL^–1 collagenase Type 1A for approximately 2 h, washed again in four changes of ND96, and then stored in ND96 containing 2.5 mM sodium pyruvate, […] gentamycin, and 0.7 mM theophylline.
(§4) cDNA was cloned into pGEMHE for oocyte expression, and pcDNA3.1 (Invitrogen, Paisley, U.K.) for expression in HEK 293 cells. Mutagenesis (Figure 1) was performed using QuikChange (Agilent Technologies Inc., Santa Clara, CA). cRNA was in vitro transcribed from linearized pGEMHE cDNA template using the mMessage mMachine T7 Transcription kit (Ambion, Austin, TX). 5-HT3A was linearized with SphI and 5-HT3B cDNA with NheI. Stage V and VI oocytes were injected with 50 nL of ∼400 ng μL^–1 cRNA, and currents were recorded 1–4 days postinjection. Ratios of 1:3 (5-HT3A:5-HT3B/5-HT3Br1/5-HT3Br2) were used for the expression of heteromeric receptors unless otherwise stated.
(§5) Currents were recorded at a frequency of 5 kHz and filtered at 1 kHz. Microelectrodes were fabricated from borosilicate glass (GC120TF-10, Harvard Apparatus, Edenbridge, Kent, U.K.) using a one stage horizontal pull (P-87, Sutter Instrument Company, Novato, CA) and filled with 3 M KCl. Pipet resistances ranged from 1.0 to 2.0 MΩ. […] Drug application was via a simple gravity fed system calibrated to run at the same rate.
For orientation: In two-electrode clamp one electrode senses voltage and the other passes current.

The target of assay [6] is T2, 5-HT3A receptors. The description is as above. It counts as cell-based. As to conditions: Hill slope, 5-HT3A receptors in oocytes. How it is done:
as §3, §4, §5

Assay [7] has as its target T3, 5-HT3ABr1 receptors. Described as above. It counts as cell-based. As to conditions: Hill slope, 5-HT3ABr1 receptors in oocytes. How it is done:
as §3, §4, §5

The test system of assay [8] is 5-HT3 receptors (5-HT3A, 5-HT3AB, 5-HT3ABr1, 5-HT3ABr2). Put plainly: Competition binding against [3H]granisetron at different 5-HT3 receptors expressed in HEK293 cells.
Method: Transfected HEK 293 cells were scraped into 1 mL of ice-cold HEPES buffer (10 mM, pH 7.4) and frozen. […] For competition binding (8 point), reactions were incubated for at least 1 h at 4 °C. Reactions were terminated by vacuum filtration using a Brandel cell harvester onto GF/B filters presoaked in 0.3% polyethylenimine. Radioactivity was determined by scintillation counting using a Beckman BCLS6500 instrument (Fullerton, CA). Individual competition binding experiments were analyzed by iterative curve fitting using Prism.
In assay [9] the target is T2, 5-HT3A receptors. As to conditions: cited from earlier work.
For assay [10], the target named is T4, 5-HT3ABr2 receptors. Put plainly: 5-HT-induced macroscopic currents, two-electrode voltage-clamp in Xenopus oocytes. It counts as cell-based. How it is done: as §3, §4, §5
The mark [11] stands for this setting: competition with 1 nM [3H]granisetron, values shown only in Figure 5.

Where two headings read alike, the source gives them in different places. Marks after values point to notes of the source that are not given here.

We go through six molecules from paper PMC4505687, “5-HT3 Receptor Brain-Type B-Subunits are Differentially Expressed in Heterologous Systems” (ACS Chemical Neuroscience, 2015).

On to `NCCc1c[nH]c2ccc(O)cc12` [5-HT, 5-hydroxytryptamine], for which the “nH, parameters from functional data” value is 1.3 ± 0.2 ^b in assay [1], 3.6 ± 0.8 in assay [2], 1.5 ± 0.3 ^b in assay [3] and 2.9 ± 0.4 ^c in [4]. The nH in assay [5] was determined as 1.0; in [6] it was 2.6; in [7], 1.0.

As to `CN1[C@@H]2CC[C@H]1C[C@@H](OC(=O)c1cc(Cl)cc(Cl)c1)C2` [MDL-72222], in [8] (setting [11]), the “Ki, rank order of potency and comparison between receptor subtypes” value (“Ki, rank order” below) is “palonosetron > granisetron > MDL-72222 > mCPBG > d-TC”.

In the case of `COc1cc2c3cc1Oc1cc(ccc1O)C[C@@H]1c4c(cc(OC)c(O)c4Oc4ccc(cc4)C[C@@H]3N(C)CC2)CC[N+]1(C)C` [d-TC, d-tubocurarine], in [8], the “Ki, rank order” value is “palonosetron > granisetron > MDL-72222 > mCPBG > d-TC”.

Consider `NC(N)=NC(N)=Nc1cccc(Cl)c1` [mCPBG], for which the “Ki, rank order” value in assay [8] (setting [11]) is reported as “palonosetron > granisetron > MDL-72222 > mCPBG > d-TC”.

Turning to `O=C1c2cccc3c2[C@H](CCC3)CN1[C@@H]1CN2CCC1CC2` [palonosetron], the “Ki, rank order” value in [8] (setting [11]) is “palonosetron > granisetron > MDL-72222 > mCPBG > d-TC”.

One may read the IC50 as the concentration that gives 50% inhibition. As to `C=C(C)[C@@H]1[C@H]2OC(=O)[C@@H]1[C@]1(O)C[C@H]3O[C@]34C(=O)O[C@H]2[C@]14C` [picrotoxinin], the figures for the IC50 in [9] and in assay [10] were 11 µM and 17 µM, respectively.
